Data reported in article PMC7601413, “Protein Disulphide Isomerase A1 Is Involved in the Regulation of Breast Cancer Cell Adhesion and Transmigration via Lung Microvascular Endothelial Cells” (Cancers, 2020).
pIC50: −log10 of the molar value.

Tests used:
[1] = target: T1, PDIA1 (protein disulphide isomerase A1) (Homo sapiens, UniProt P07237); assay: insulin reduction turbidimetric assay with recombinant enzyme; assay type: biochemical; conditions: read-out: Enzymatic Activity, % of Initial / PDIA1
T1 construct: gene P4HB; recombinant, full length, 18-508aa, His-tag, E. coli
T1 sequence (P07237 18-508): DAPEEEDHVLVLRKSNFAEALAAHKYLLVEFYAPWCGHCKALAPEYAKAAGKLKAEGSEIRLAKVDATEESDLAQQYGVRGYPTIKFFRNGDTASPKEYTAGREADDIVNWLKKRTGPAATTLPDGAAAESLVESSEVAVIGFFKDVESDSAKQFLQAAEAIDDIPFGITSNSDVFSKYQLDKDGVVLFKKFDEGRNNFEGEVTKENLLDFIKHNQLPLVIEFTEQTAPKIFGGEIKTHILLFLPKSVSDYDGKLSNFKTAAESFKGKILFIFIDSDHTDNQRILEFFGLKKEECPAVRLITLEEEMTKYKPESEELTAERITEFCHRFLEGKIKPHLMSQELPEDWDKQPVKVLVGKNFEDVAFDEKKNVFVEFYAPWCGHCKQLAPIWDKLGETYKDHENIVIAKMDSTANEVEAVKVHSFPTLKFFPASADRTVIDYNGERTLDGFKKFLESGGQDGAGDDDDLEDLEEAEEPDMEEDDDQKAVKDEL

PDIA3 = target: T2, PDIA3 (Homo sapiens, UniProt P30101); assay: as above; assay type: biochemical; conditions: read-out: Enzymatic Activity, % of Initial / PDIA3
T2 construct: recombinant, 25-505aa, His-tag, E. coli
T2 sequence (P30101 25-505): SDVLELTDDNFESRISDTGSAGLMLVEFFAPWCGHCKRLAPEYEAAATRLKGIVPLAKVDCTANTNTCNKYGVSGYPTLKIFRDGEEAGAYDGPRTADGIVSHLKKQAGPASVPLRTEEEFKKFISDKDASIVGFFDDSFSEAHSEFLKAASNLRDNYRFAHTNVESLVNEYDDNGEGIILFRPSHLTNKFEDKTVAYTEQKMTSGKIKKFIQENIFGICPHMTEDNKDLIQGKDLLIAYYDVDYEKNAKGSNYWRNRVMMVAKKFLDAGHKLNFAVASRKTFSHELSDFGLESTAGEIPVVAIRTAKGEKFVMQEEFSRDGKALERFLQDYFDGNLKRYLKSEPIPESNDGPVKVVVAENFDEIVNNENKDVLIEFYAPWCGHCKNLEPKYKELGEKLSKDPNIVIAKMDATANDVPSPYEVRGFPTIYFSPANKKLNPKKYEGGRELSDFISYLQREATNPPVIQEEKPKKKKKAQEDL

bepristat 2a
pIC50 [1]: 5.68
pIC50 (PDIA3): 3.90
